Measurements from ChEMBL document CHEMBL1201862, “PubChem BioAssay data set” (2004).
Calls of active or inactive are those of the source.

What was measured:
[1] = biological target: Matrix metalloproteinase-14 (Homo sapiens, UniProt P50281); experiment: Dose Response confirmation of uHTS hits for a small molecule inhibitors of MT1-MMP activation in a fluorescence assay set 2.; format: functional
[2] = biological target: T1, Tyrosine-protein phosphatase non-receptor type 22 (Homo sapiens, UniProt Q9Y2R2); experiment: LYP phosphatase inhibition for selectivity, dose response, selectivity assay for LMPTP inhibitor project, biochemical, fluorescence, LYP catalytic domain (AID 652006); format: functional; conditions: read-out: IC50_Mean
T1 sequence (Q9Y2R2 whole entry): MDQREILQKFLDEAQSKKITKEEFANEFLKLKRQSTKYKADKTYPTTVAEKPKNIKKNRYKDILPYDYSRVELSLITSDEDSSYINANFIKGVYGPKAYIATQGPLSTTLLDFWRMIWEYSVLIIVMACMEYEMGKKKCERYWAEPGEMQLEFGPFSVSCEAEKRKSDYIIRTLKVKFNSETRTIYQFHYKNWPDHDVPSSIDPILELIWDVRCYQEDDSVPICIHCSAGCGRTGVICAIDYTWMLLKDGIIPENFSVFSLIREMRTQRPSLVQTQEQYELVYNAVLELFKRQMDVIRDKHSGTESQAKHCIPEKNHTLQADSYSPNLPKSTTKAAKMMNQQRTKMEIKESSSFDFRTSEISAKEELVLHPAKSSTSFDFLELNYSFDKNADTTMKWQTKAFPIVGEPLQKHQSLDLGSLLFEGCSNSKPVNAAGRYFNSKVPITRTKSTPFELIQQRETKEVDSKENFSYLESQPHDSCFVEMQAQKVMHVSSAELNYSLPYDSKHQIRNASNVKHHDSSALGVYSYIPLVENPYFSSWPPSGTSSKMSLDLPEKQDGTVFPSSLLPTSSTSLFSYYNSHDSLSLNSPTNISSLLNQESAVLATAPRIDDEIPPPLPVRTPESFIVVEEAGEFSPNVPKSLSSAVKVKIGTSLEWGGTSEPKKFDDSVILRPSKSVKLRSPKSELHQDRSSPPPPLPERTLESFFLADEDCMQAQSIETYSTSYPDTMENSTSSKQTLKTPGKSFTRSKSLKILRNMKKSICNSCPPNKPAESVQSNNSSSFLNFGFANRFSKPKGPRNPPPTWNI

[3] = biological target: T2, DNA repair protein RAD52 homolog (Homo sapiens, UniProt P43351); format: functional, biochemical
T2 sequence (P43351 whole entry): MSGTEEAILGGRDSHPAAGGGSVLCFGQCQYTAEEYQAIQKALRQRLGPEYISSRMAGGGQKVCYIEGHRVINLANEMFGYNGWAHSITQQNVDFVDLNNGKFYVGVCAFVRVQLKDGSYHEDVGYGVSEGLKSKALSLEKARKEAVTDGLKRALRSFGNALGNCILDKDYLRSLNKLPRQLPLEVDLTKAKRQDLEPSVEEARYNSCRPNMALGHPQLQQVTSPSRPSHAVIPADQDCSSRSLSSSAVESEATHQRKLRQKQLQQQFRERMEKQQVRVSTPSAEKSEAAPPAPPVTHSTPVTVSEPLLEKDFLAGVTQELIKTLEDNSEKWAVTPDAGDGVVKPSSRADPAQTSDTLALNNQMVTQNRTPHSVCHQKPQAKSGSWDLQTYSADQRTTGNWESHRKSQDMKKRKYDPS

[4] = biological target: T3, Low molecular weight phosphotyrosine protein phosphatase (Homo sapiens, UniProt P24666); format: functional; conditions: read-out: IC50_Mean;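 also: Dose-response confirmation assay measuring inhibition of LMPTP enzyme activity by fluorescence intensity read-out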
T3 sequence (P24666 whole entry): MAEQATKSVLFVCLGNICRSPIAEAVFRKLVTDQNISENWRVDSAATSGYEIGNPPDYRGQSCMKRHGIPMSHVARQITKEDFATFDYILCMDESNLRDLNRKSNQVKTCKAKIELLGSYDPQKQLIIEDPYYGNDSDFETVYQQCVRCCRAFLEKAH

ORF 73 = ORF 73 (Human herpesvirus 8, UniProt O40947); experiment: inhibitors of C-LANA binding to LBS DNA, dose response, biochemical, fluorescence polarization, cherry-picked samples (AID 504725); design: species or system Human gammaherpesvirus 8;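 also: fluorescence polarization of a labeled DNA duplex reporting LANA DNA binding; potency is for inhibitors that block LANA binding to the DNA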
Beta Lactamase = Beta Lactamase (Pseudomonas aeruginosa, UniProt Q932Y6);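 also: confirmatory high-throughput screen measuring VIM-2 metallo-beta-lactamase inhibition by epi-absorbance in dose response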
Beta-lactamase [5] = biological target: Beta-lactamase (Salmonella choleraesuis (strain SC-B67), UniProt Q5J463)
Beta-lactamase [6] = biological target: Beta-lactamase (Pseudomonas aeruginosa, UniProt Q79MP6);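 also: biochemical dose-response test of metallo-beta-lactamase enzyme inhibition, read out by epi-absorbance; purified recombinant IMP-1 metallo-beta-lactamase with nitrocefin as substrate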
[7] = biological target: T4, Trace amine-associated receptor 1 (Homo sapiens, UniProt Q96RJ0); experiment: Counterscreen for antagonists of the human trace amine associated receptor 1 (hTAAR1): Fluorescence-based cell-based high throughput dose response assay to identify TAAR1 Agonists.; format: functional
T4 sequence (Q96RJ0 whole entry): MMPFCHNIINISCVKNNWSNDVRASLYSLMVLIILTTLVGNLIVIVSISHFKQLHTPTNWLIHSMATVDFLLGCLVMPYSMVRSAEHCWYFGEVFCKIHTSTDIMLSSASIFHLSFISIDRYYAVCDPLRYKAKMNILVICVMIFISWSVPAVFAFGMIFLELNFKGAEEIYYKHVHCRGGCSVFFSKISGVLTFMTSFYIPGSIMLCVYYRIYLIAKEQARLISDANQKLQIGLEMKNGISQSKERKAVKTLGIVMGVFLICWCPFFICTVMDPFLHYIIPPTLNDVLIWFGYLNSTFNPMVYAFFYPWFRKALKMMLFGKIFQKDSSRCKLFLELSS

[8] = Counterscreen for antagonists of the human trace amine associated receptor 1 (hTAAR1): Fluorescence-based cell-based high throughput dose response assay to identify nonselective Ga16 antagonists.; format: functional
[9] = biological target: T4, Trace amine-associated receptor 1; experiment: Fluorescence-based cell-based high throughput dose response assay to identify antagonists of the human trace amine associated receptor 1 (TAAR1).; format: functional
[10] = Counterscreen for […] of the human trace amine associated receptor 1 (TAAR1): Fluorescence-based cell-based high throughput dose response assay to identify nonselective Ga16 agonists.; format: functional
[11] = inhibitors of CMV-promoter luciferase reporter, dose response, counter-screen for Pax8 inhibitor project, cell-based, HEK293, luminescence, dry powder (AID 743020); format: functional
Paired box protein Pax-8 = Paired box protein Pax-8 (Homo sapiens, UniProt Q06710); experiment: inhibitors of PAX8-driven TPO luciferase reporter, dose response, RMG-I cells, cherry-pick (AID 687027); format: functional, cell-based;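 also: luciferase reporter driven by Pax8 target thyroperoxidase promoter measured by SteadyGlo luminescence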
[12] = biological target: Palmitoyl-protein thioesterase ABHD10, mitochondrial (Mus musculus, UniProt Q6PE15); experiment: Late stage assay provider results from the probe development effort to identify inhibitors of PME-1: fluorescence-based dose response biochemical gel-based competitive Activity-Based Protein Profiling (ABPP) inhibition of ABHD10 Set 1.; format: functional
[13] = biological target: 5-hydroxytryptamine receptor 2A (Mus musculus, UniProt P35363); format: functional, cell-based;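 also: CHO-K1 cells with tagged receptor and beta-arrestin; agonist potency measured as compound-induced activation of the receptor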
Mu-type opioid receptor = Mu-type opioid receptor (Homo sapiens, UniProt P35372); format: functional, cell-based;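 also: U2OS cells with beta-arrestin recruitment to OPRM1 by beta-gal complementation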
[14] = HEK293 cell viability, dose response, counter-screen for EBV LMP1 inhibitor project, dry powder, set 2 (AID 624374); format: functional
[15] = biological target: Botulinum neurotoxin type F (Clostridium botulinum, UniProt P30996); experiment: High-throughput multiplex microsphere dose response for inhibitors of toxin protease, specifically Botulinum neurotoxin light chain F protease, compounds from Cherry Pick 02.; format: functional; conditions: read-out: EC50_MICROM
[16] = biological target: T4, Trace amine-associated receptor 1; experiment: Fluorescence-based cell-based high throughput dose response assay to identify agonists of the human trace amine associated receptor 1 (TAAR1).; format: functional
[17] = biological target: T4, Trace amine-associated receptor 1; experiment: Counterscreen for agonists of the human trace amine associated receptor 1 (hTAAR1): Fluorescence-based cell-based high throughput dose response assay to identify hTAAR1 agonist that also desensitize TAAR1 receptor response.; format: functional
cells [18] = format: functional, cell-based
cells [19] = format: functional, cell-based; remark: listed apart in the source

Beta Lactamase, sequence (Q932Y6 whole entry): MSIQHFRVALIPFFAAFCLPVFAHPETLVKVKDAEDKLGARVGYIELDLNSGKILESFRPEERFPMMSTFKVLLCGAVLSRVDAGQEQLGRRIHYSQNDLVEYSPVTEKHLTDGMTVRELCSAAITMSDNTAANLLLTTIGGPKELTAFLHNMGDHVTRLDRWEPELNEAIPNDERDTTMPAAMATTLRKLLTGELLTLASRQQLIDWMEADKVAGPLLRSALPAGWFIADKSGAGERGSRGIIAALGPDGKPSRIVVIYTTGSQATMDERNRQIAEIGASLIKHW
Beta-lactamase (Pseudomonas aeruginosa, UniProt Q79MP6), sequence (Q79MP6 whole entry): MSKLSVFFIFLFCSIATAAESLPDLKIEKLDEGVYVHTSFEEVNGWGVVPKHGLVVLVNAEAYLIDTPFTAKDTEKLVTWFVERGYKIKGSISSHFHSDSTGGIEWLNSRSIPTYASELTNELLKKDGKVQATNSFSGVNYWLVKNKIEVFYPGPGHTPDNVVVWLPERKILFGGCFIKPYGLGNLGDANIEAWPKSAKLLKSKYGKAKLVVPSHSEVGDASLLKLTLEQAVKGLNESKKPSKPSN
Paired box protein Pax-8, sequence (Q06710 whole entry): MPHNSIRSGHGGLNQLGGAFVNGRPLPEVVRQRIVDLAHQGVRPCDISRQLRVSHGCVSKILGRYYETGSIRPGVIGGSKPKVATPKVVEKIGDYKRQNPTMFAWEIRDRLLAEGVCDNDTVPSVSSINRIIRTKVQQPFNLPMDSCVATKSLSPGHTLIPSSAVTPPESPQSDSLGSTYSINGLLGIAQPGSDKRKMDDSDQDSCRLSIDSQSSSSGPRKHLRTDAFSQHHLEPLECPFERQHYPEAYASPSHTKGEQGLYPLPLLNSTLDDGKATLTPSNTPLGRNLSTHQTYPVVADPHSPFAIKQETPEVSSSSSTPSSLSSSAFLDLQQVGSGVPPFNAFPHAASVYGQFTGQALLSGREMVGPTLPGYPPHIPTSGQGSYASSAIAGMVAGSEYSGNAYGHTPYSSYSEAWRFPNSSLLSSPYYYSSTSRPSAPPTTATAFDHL
ORF 73, sequence (O40947 whole entry): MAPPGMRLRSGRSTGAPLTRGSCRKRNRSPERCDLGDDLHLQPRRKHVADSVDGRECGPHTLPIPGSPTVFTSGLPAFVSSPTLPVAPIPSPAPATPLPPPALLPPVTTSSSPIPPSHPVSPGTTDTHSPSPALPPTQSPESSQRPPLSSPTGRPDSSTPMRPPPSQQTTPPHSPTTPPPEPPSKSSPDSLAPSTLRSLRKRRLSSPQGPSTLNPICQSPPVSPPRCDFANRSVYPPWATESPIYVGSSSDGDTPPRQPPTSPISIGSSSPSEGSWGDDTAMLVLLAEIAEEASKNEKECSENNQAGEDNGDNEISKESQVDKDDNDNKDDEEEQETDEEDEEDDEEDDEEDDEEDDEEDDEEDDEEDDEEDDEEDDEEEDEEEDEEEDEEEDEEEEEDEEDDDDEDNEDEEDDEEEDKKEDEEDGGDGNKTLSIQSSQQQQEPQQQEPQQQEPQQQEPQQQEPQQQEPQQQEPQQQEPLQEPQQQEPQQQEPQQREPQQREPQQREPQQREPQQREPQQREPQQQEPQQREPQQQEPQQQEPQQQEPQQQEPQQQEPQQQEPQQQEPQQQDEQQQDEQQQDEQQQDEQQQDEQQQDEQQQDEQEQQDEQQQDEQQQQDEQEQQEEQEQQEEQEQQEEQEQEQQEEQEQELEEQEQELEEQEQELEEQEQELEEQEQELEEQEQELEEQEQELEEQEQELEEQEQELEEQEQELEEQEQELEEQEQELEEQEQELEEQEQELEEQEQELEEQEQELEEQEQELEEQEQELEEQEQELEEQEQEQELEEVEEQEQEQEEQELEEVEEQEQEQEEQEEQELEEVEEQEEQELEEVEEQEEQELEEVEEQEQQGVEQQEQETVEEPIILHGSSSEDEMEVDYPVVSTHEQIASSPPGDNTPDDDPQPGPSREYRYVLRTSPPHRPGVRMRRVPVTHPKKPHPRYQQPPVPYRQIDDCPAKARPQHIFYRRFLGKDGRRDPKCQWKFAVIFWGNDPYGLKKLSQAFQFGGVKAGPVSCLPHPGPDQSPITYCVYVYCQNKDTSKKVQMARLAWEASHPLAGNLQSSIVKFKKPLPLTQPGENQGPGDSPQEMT
Beta-lactamase (Salmonella choleraesuis (strain SC-B67), UniProt Q5J463), sequence (Q5J463 whole entry): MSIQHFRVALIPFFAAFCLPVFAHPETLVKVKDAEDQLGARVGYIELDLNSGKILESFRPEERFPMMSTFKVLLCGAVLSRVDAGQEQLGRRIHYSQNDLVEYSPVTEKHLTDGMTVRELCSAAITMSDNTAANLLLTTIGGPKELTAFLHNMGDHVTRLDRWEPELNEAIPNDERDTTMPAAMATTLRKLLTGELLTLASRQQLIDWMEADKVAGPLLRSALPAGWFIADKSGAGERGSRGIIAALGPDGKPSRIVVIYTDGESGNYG
Mu-type opioid receptor, sequence (P35372 whole entry): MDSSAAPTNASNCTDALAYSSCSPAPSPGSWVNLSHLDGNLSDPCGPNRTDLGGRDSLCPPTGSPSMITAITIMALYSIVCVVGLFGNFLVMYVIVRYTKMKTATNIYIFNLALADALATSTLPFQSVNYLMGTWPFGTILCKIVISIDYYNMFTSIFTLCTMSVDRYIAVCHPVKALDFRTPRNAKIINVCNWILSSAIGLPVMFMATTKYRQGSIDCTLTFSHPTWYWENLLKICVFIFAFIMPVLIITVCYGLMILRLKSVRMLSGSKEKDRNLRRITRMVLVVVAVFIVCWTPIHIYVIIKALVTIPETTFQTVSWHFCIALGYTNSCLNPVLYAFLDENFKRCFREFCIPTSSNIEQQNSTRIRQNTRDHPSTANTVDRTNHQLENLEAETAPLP
Palmitoyl-protein thioesterase ABHD10, mitochondrial, sequence (Q6PE15 whole entry): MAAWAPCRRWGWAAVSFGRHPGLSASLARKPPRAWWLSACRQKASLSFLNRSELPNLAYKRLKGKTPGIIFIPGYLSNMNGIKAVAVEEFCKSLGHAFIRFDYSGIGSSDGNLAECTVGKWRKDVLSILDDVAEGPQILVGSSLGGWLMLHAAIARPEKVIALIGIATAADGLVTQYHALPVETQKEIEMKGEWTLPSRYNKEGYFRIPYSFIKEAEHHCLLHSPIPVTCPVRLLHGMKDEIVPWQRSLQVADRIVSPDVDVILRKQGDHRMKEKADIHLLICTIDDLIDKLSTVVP
Botulinum neurotoxin type F, sequence (P30996 1-436 limits assumed): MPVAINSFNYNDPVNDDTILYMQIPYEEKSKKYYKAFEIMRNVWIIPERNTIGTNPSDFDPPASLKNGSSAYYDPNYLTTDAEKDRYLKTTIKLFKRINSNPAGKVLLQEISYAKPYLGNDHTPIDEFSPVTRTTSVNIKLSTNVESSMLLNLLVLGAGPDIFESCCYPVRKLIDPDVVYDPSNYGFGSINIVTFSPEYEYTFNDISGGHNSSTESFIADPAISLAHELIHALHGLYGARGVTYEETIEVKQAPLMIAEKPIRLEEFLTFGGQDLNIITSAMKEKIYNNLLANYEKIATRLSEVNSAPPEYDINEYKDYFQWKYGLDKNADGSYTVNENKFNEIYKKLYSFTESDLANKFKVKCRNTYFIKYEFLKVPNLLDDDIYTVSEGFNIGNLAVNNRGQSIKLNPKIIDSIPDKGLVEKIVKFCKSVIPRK
5-hydroxytryptamine receptor 2A, sequence (P35363 whole entry): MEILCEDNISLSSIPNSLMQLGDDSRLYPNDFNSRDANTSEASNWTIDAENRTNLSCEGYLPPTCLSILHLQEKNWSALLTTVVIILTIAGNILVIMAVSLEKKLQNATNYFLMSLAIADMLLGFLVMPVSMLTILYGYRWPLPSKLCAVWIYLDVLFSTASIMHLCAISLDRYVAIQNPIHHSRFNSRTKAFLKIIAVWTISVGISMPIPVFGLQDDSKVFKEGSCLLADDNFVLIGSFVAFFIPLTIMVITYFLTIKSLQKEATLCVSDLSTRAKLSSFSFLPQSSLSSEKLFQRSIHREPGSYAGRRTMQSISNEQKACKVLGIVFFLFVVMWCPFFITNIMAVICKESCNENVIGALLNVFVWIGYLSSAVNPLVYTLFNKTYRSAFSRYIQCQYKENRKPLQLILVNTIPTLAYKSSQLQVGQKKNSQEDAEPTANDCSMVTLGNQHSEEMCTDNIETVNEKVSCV

Question: With `CN1/C(=C/C=C/c2n(C)c3cc([N+](=O)[O-])c([N+](=O)[O-])cc3[n+]2C)C(C)(C)c2ccccc21` as the compound, how does the IC50 [1] read?
Answer: 6.17 µM (active)

Question: What about the IC50 [2] of the same compound?
Answer: 42.2 µM (inactive)

Question: What about the AC50 [3] of the same compound?
Answer: 18.4 µM (active)

Question: What about the IC50 [4] of the same compound?
Answer: 20.1 µM (inactive)

Question: Which results are given for `CN(C)c1ccc(/C=N/N(CCO)C2=NS(=O)(=O)c3ccccc32)cc1`?
Answer: AC50 (ORF 73): 1 µM (active); IC50 (Beta Lactamase): 9.4 µM (active); IC50 (Beta-lactamase [5]): 6.94 µM (active); IC50 (Beta-lactamase [6]): 8.93 µM (active)

Question: What does the source list for `O=C(Nc1cccnc1)c1ccc(COc2ccccc2Br)cc1`?
Answer: EC50 [7]: > 29.9 µM (inactive); IC50 [8]: > 29.9 µM (inactive); IC50 [9]: 4.17 µM (active); EC50 [10]: > 29.9 µM (inactive)

Question: With `Cc1ccc(S(=O)(=O)CCC(=O)c2ccc(F)cc2)cc1` as the compound, how does the AC50 [11] read?
Answer: 27.9 µM (active)

Question: What about the AC50 (Paired box protein Pax-8) of the same compound?
Answer: 11.3 µM (active)

Question: Which IC50 [12] does the source give for `CC[C@@]1(c2ccccc2)C(=O)N(C(=O)OC(C)C)N1C(=O)OC(C)C` here?
Answer: 0.13 µM (active)

Question: With `Clc1ccc(CN2CCN(c3ncccn3)CC2)cc1Cl` as the compound, how does the EC50 [13] read?
Answer: 0.424 µM (active)

Question: What about the EC50 (Mu-type opioid receptor) of the same compound?
Answer: 92.5 µM (inactive)

Question: Which AbsAC35 [14] does the source give for `COC(=O)C[C@H]1C[C@H]2c3cc(NC(=O)CN(C)C)ccc3O[C@H]2[C@H](CO)O1` here?
Answer: 110.27 µM

Question: For `CN(CC(=O)NC1CCN(Cc2ccccc2)CC1)S(=O)(=O)c1ccc(Cl)cc1`, which EC50 [15] is on record?
Answer: > 20 µM (inactive)

Question: For `O=C(NCCc1ccccc1)C(=O)NCC1OCCN1S(=O)(=O)c1ccc2c(c1)OCCO2` (stereo not drawn), which EC50 [16] is on record?
Answer: 5.13 µM (active)

Question: And the IC50 [17]?
Answer: 8.98 µM (active)

Question: And the EC50 (cells [18])?
Answer: > 29.9 µM (inactive)

Question: What about the IC50 (cells [19]) of the same compound?
Answer: > 29.9 µM (inactive)
